Experiment: physchem
Settings: octan-1-ol/water, pH 7.4
`Nc1ccc(C2(c3ccc(N)cc3)CCCCC2)cc1` gave a logD of 3.2.
For `O=C(c1ccc(C(=C2CCN(Cc3cscn3)CC2)c2cccc3cccnc23)cc1)N1CCOCC1`, the logD was 2.12.
`c1ccc(CCNCc2ccccc2)cc1` gave a logD of 1.65.
Compound `COC(=O)N1CCN(C(=O)Cc2ccc(Cl)c(Cl)c2)[C@H](CN2CCCC2)C1` has a logD of 2.05.
`CC(C)(C)OC(=O)c1ncn2c1[C@@H]1CCCN1C(=O)c1c(Br)cccc1-2` [BRETAZENIL] gave a logD of 2.48.
Work on `Cc1cc(C)n(-c2cccc(Cl)c2C#N)n1` yielded a logD of 3.
Compound `CC(O)c1ccc2c(c1)N(CCN1CCC(NCc3ccc4c(n3)NC(=O)CO4)CC1)C(=O)CO2` (stereo unspecified) has a logD of 0.25.
Compound `NC(=O)c1cncc(O[C@H]2C[C@H]3CC[C@@H](C2)N3Cc2ccccc2)n1` has a logD of 1.1.
For `CN(C)C(=O)N[C@H]1CC[C@H](CN2[C@@H]3CC[C@H]2C[C@@H](Oc2cccc(C(N)=O)c2)C3)CC1`, the logD was -0.07.
For `CCCC(C)(COC(N)=O)COC(=O)NC(C)C` (stereo unspecified) [CARISOPRODOL], the logD was 2.01.

Same assay, conditions: octan-1-ol/water, pH 7.4, LogD7.4
For `Cc1ccc(-n2c(C)cc(C(=O)NS(=O)(=O)c3ccc(C)cc3)c2C)cc1`, the logD was 2.5.
In the case of `CN(C)CCCC(NC(=O)C1(N)CCN(c2ncnc3[nH]ccc23)CC1)c1ccc(Cl)cc1` (stereo unspecified), the logD is reported as 1.4.
Work on `CCN(C(=O)NCc1ccccc1)C1CCN(CCC(c2ccccc2)c2ccccc2)CC1` yielded a logD of 4.
`COc1ccc2c(c1)N(C[C@H](C)CN(C)C)c1ccccc1S2` [LEVOMEPROMAZINE] gave a logD of 2.99.
`CC1(c2ccccc2)CC(=O)NC(N)=N1` (stereo unspecified) gave a logD of 0.62.
`CCN(CCO)CCCOc1cc2ncnc(Nc3cc(CC(=O)Nc4cccc(F)c4)[nH]n3)c2cc1OC` gave a logD of 2.12.
For `O=C(O)CCCS(=O)(=O)c1cccc(C(=O)N2CCC(N3CCC(Oc4ccc(Cl)c(Cl)c4)CC3)CC2)c1`, the logD was 0.66.
With `CC(NC(=O)C1(N)CCN(c2ncnc3[nH]ccc23)CC1)c1ccc(S(C)(=O)=O)cc1` (stereo unspecified) the logD was 1.
For `O=C(O)c1cccnc1Nc1cccc(C(F)(F)F)c1` [NIFLUMIC ACID], the logD was 1.
In the case of `COc1cc(-c2c(F)ccc3c(N)c(C(=O)NC4CC4)nnc23)c(OC)nn1`, the logD is reported as 2.75.
`COc1cc(F)ccc1-c1cc(CNC2CCCC2)ccn1` gave a logD of 1.71.
For `Cc1nc2c(C#N)cnn2c(O)c1Cc1ccccc1`, the logD was 0.68.
With `Cc1cc2n[nH]c(=O)n2c2cc(-c3ccc(C(=O)N4CCOCC4)cc3)ccc12` the logD was 2.77.
For `CCCNC(=O)c1nnc2c(-c3ncccn3)c(F)ccc2c1N`, the logD was 2.07.
For `Cc1cnc(NC(=O)c2cc(Oc3cnc(C(=O)N(C)C)nc3)c3cc(C)oc3c2)cn1` [NERIGLIATIN], the logD was 2.1.
Work on `CCNCc1cncc(-c2ccc(F)cc2OC)n1` yielded a logD of 1.18.
`CC[C@H](NC(=O)c1c(N)c(-c2cccc(F)c2)nc2ccccc12)c1ccccc1` showed a logD of 4.05.
`CN(C)CCOc1ccccc1Cc1ccccc1` [PHENYLTOLOXAMINE] showed a logD of 2.53.
Work on `O=c1[nH]nc2cc(CO)c3ccc(-c4ccc[nH]4)cc3n12` yielded a logD of 2.19.
For `CC(C)C(NC(=O)Cn1c(-c2ccccc2)ccc(NC(=O)OCc2ccccn2)c1=O)C(=O)C(F)(F)F` (stereo unspecified), the logD was 1.91.
`CNC(=O)c1ccc(Nc2nccc(-c3cnc(C)n3C(C)C)n2)cc1` showed a logD of 2.69.
With `COc1ccc(C(CNC(=O)Nc2ccccc2)N2CCN(C)CC2)cc1` (stereo unspecified) the logD was 1.5.
Work on `CC(C)Cn1c(=O)n(C)c(=O)c2c(S(=O)(=O)N3CC[C@@H](O)C3)c(Cc3ccccc3C(F)(F)F)sc21` yielded a logD of 3.32.
Work on `Cn1cc(-c2cccc(C[C@H](NC(=O)c3cc(C(C)(C)C)nn3C)C(=O)NCC#N)c2)cn1` yielded a logD of 2.6.
With `CC(=O)N1CCOc2nc(OCc3ccccc3)ccc21` the logD was 2.4.
`FC(F)(F)c1cc(CO[C@H]2CCCN[C@H]2c2ccccc2)cc(C(F)(F)F)c1` gave a logD of 3.6.
In the case of `CC(=O)Nc1ccccc1C`, the logD is reported as 1.
With `C[C@@](Cc1ccc(O)c(O)c1)(NN)C(=O)O` [CARBIDOPA ANHYDROUS] the logD was -0.7.
`Cc1cccc(S(=O)(=O)NC(=O)N2CCC(N3CCC(Oc4ccc(Cl)c(Cl)c4)CC3)CC2)c1` gave a logD of 1.84.
With `CS(=O)(=O)c1ccc(-c2cc(C(=O)N[C@H]3CCCNC3)c(NC(N)=O)s2)cc1` the logD was 0.68.
Compound `O=c1[nH]n(Cc2ccncc2)c(=O)c2c(=O)c3ccc(Cl)cc3[nH]c12` has a logD of -0.16.
